In one data set the test system is DLBCL cell lines. The data set is described as follows: CellTiter-Glo luminescent cell viability assay, DLBCL cell lines. In kind it is cell-based, human. The following applies: 72h incubation, CTG assay. The protocol: (§1) Hereto, the 50% inhibitory concentration (IC50) was determined in said cancer cell lines using the CellTiter-Glo® (CTG) luminescent cell viability assay after a 72h incubation with different concentrations of the two drugs ranging from 10 nM to 100 uM.
(§2) All cell lines were cultured in the media supplemented with 10-15% FBS, at a temperature of 37° C., 5% CO2 and 95% humidity. Cell viability was measured using the CTG Luminescent Cell Viability Assay by standard procedures. Satraplatin was purchased from MedChemExpress (China) and cisplatin from Qilu Pharm (China), respectively. 1 mM solution of both drugs were established for storage at -20° C. as previously described (Wosikowski K et al., Cancer Chemother Pharmacol (2007) 60(4):589-600).
(§3) Cells were harvested during the logarithmic growth period and count cell number using Count-star. Cell concentrations were adjusted to 4.44×10^4 cells/mL with the respective culture medium. […] Luminescence was recorded using EnVision Multi Label Reader.
(§4) In order to calculate absolute IC50 (EC50), a dose-response curve was fitted using a nonlinear regression model with a sigmoidal dose response. […] The absolute IC50 (EC50) was calculated according to the dose-response curve generated by GraphPad Prism 5.0. The standard deviation was calculated for each dose level and each cell line and is indicated by the bars.

Data set [1] deals with multiple myeloma cell lines. The data set is described as follows: CellTiter-Glo luminescent cell viability assay, multiple myeloma cell lines. In kind it is cell-based, human. As to conditions: FIG. 5. The protocol: as §1, §2, §3, §4
For data set [2], the system named is T-cell lymphoma cell lines. Put plainly: CellTiter-Glo luminescent cell viability assay, T-cell lymphoma cell lines. In kind it is cell-based, human. As to conditions: particularly ALK+ ALCL, FIG. 4A-4D. The protocol:
as §1, §2, §3, §4

For data set [3] the following is noted: in vivo, po; cited from earlier work.
The subject of data set [4] is lymphoma and myeloma cell lines. Put plainly: CellTiter-Glo luminescent cell viability assay, panel of 41 lymphoma and multiple myeloma cell lines. The format is cell-based, human. The protocol:
as §1, §2
Cells were harvested during the logarithmic growth period and count cell number using Count-star. Cell concentrations were adjusted to 4.44×10^4 cells/mL with the respective culture medium. Then, 90 µL cell suspensions were added in triplicate to two 96-well plates (plates A and B) with the final cell density of 4×10^3 cells/well. […] For that purpose, plates were equilibrated at RT for approximately 30 min. Then, 50 µL CTG reagent was added to each well. The content was mixed for 5 min on an orbital shaker to induce cell lysis and the plate incubated at RT for 20 min to stabilize luminescent signal. Luminescence was recorded using EnVision Multi Label Reader.
In order to calculate absolute IC50 (EC50), a dose-response curve was fitted using a nonlinear regression model with a sigmoidal dose response. The formula for calculating surviving rate is: The surviving rate (%) = (LumTest article-LumMedium control)/(LumNon-treated-LumMedium control)×100%. The absolute IC50 (EC50) was calculated according to the dose-response curve generated by GraphPad Prism 5.0. The standard deviation was calculated for each dose level and each cell line and is indicated by the bars.

Another data set deals with OCI-LY7 cells. The data set is described as follows: CellTiter-Glo luminescent cell viability assay, OCI-LY-7. The format is cell-based, human. The following applies: DLBCL cell line, 72h. The protocol: as §1, §2, §3, §4
The conditions of data set [5]: in vivo; cited from earlier work.
Data set [6] relates to metastatic prostate cancer. As to conditions: SPARC trial, patients receiving satraplatin; cited from earlier work.
Another data set has as its system OCI Ly-3 cell line. The data set is described as follows: CellTiter-Glo luminescent cell viability assay, OCI-LY-3. In kind it is cell-based, human. The following applies: PCNSL-like DLBCL cell line, FIG. 3K, 72h. The protocol:
as §1, §2, §3, §4

Data set [7] concerns B-cell lymphoma cell lines (Burkitt lymphoma, mantle cell lymphoma, DLBCL). The data set is described as follows: CellTiter-Glo luminescent cell viability assay, B-cell lymphoma cell lines. In kind it is cell-based, human. As to conditions: mantle cell lymphoma and DLBCL cell lines, FIGS. 1-3. The protocol:
as §1, §2, §3, §4

The structures appear in SMILES notation.

For `N.N.[Cl][Pt][Cl]` [cisplatin], in the data set with DLBCL cell lines, the “IC50 values in DLBCL cell lines” value is reported as “low micromolar or even sub-molar”.

`CC(=O)[O][Pt]([NH2])([Cl])([Cl])([NH]C1CCCCC1)[O]C(C)=O` [satraplatin, bis (acetato) ammine dichloro (cyclohexylamine) platinum (IV)]: the “inducing cell death, compared to cisplatin” value in data set [1], in [2] and in [7] was “at least equivalent to cisplatin” throughout. Further, in data set [3], the “nephro- or neurotoxicity in clinical trials” value is reported as “no or not relevant nephro- or neurotoxicity”. In addition, the “relative sensitivity of certain cell lines” value in data set [4] (DOHH2, OCI Ly19, SUDHL5, OCI Ly3, Toledo, Z138, Daudi, SUDHL1, HuT78 cell lines, FIG. 6) is on record as “particularly sensitive”. In addition, in data set [4] (FIGS. 1-6, 72h incubation), the “IC 50 values, killing of lymphoma cell lines” value is reported as “low micromolar concentrations or even lower”. Also, the “sensitivity of all cell lines described” value in data set [4] (all tested cell lines) is given as “sensitive”. In the data set with OCI-LY7 cells, the “killing of OCI-LY7 cells compared to cisplatin” value was “significantly superior”. In addition, the CNS penetration result in [5] is recorded as “clinically proven meaningful CNS penetration”. The “IC50 values in DLBCL cell lines” value with DLBCL cell lines was “low micromolar or even sub-molar”. Further, in data set [6], the “patients showing a relevant PSA-response (decline of more than 50%)” value was 25%. Besides, in the data set on OCI Ly-3 cell line, the “killing of OCI Ly-3” value was “very effectively killed”.

The values above are taken from US20230301958A1, “SATRAPLATIN FOR USE IN THE TREATMENT OF LYMPHOID NEOPLASMS” (priority 2020, published 2023).
